According to patent US20170224711A1, “COMPOSITIONS AND METHODS FOR THE TREATMENT OF NEURODEGENERATIVE DISEASES” (University of Houston System, priority 2014, published 2017):
“Also recorded” adds a separate entry of the source.

Columns and labels:
[1] = test system: Human Ovarian cancer cells, A2780; assay: CHIP array: whole genome expression (HumanHT-12 v4.0 BeadChip); type: cell-based; settings: 12 or 24 hours, vs control or untreated cells; for Fold change expression of ATF / Fold change expression of NMDAR2C: direction ↑; for Fold change expression of RAB27A / Fold change expression of SLC39A3: direction ↓
Description: Human Ovarian cancer cells, A2780, were treated with compound and different concentration for 12 or 24 hours. The total RNA from the treated human cells were extracted by Trizol (Invitrogen) and purified by Rneasy Mini kit (Qiagen, Valencia, Calif.). The concentration and integrity of all RNA samples were assessed using the NanoDrop ND-2000 spectrophotometer (NanoDrop Technologies, Wilmington, Del.) and the Bioanalyzer 2100 system (Agilent Technologies, Santa Clara, Calif.). 1 ug of total RNA from each sample were subjected to whole-genome gene expression analysis at the Microarray Core Facility of University of Texas Southwestern Medical Center (https://microarray.swmed.edu) using the HumanHT-12 v4.0 BeadChip (Illumina, San Diego, Calif.) according to the manufacturer's instructions. Microarray data were extracted using BeadStudio v3.1 software, background-subtracted, and normalized using a cubic spline algorithm. Genes differentially expressed between groups were identified using the Illumina custom error model implemented in BeadStudio. […] The pathways and interaction networks that the genes involved were further analyzed by Ingenuity Pathyway analysis software (www.ingenuity.com).
The treatment of A2780, human ovarian cancer cell line at different concentrations were examined for the differential gene expression compared to the whole human genome and compared to untreated samples (controls). A representative heat map reflecting the fold change in expressions of genes modulated by RRD2 involved in neurodegenerative diseases is shown in FIG. 3. […] These genes are implicated in neurological disorders and neurodegenerative diseases and the modulation of these genes by Phosphaplatins is significant for providing neuroprotection.

[2] = test system: A2780 ovarian cancer cells; assay: Western blot protein expression; type: cell-based, human; settings: for ATF3 protein expression compared to control / HPD protein expression compared to control / NMDAR2C protein expression compared to control / RAB27A protein expression compared to control / SLC39A3 (ZIP3) protein expression compared to control / SQSTM1 protein expression compared to control: 24 hrs treatment, Western blot
Description: A2780 ovarian cancer cells cell line was cultured in 60 or 100 mm^3 cell culture dishes. Once the plated were 80% confluent, the cells were incubated in the presence and absence of either R,R-D2 or R,R-D4. After 24 hrs of drug treatment, proteins were extracted from the cells using 200-500 μl of either RIPA or MPER protein extraction reagent buffer or both. Halt protease inhibitor cocktail from Thermo Fisher was added to the protein extraction reagents. The protein concentration was measured using BCA kit from Promega. The freshly extracted proteins (40 to 50 μg) were run on a 4-12% or 4-20% tris-glycine gels, at 120 V for 2 to 3 hours after which the proteins were transferred onto nitrocellulose membranes for one hour. Then the blots were incubated in 5% milk. The following primary antibodies were incubated overnight in 5% milk. These antibodies include: mouse anti-rabbit IgG-FITC, mouse anti-goat IgG-PE, anti-mouse IgG2a-PE, SQSTM1 (D-3), Egr-2 (H-220), ZIP3 (D-14), TOX1 (T-12), ATF-3 (H-90), NMDAμ4 (C-20), HPPD (H-300), Fos B (C-20), PPT2 (C-18), Hep G2 Cell Lysate, TMEM106B (C-12), xCT (Q-18) after which the proteins were detected by species-specific HRP-conjugated secondary antibody using ECL chemiluminescence kit purchased from GE health care.
To confirm that the modulation of the genes listed in Table 1, following treatment with RRD2 and RRD4 in the human ovarian cancer cell line, A2780, also affects the protein expression of these genes, some representative genes from Table 1 were assessed for their corresponding protein expression as measured by Western Blot using protein specific antibodies. The protein expressions for HPD, SQSTM1, ATF3, NMDAR2C were higher compared to the control samples while RAB27A and SLC39A3 (ZIP3) expressions were lower than the control samples following treatment with the aforementioned compounds (FIGS. 4A-4B). Note that HPD and NMDAR2C were calibrated against both actin and GADPH (FIG. 4C). As indicated in the Tables, overexpressed proteins/genes are implicated in protecting neurons from a variety of neurodegenerative diseases.

[3] = test system: hippocampal slices; assay: Zero magnesium model of epileptiform activity in hippocampal slices; type: cell-based, rat; settings: slices incubated in 20 μM for 15 minutes, then zero magnesium solution, N=6
Description: Sprague-Dawley male rats (P14-18) were deeply anesthetized with ether and after the decapitation, the brains were removed rapidly and laced in the fresh high sucrose dissection solution. After hippocampus isolation, hippocampal slices ([…]) were prepared using a Vibratome. The prepared slices were incubated in the artificial cerebrospinal fluid (ACSF) (pH 7.3) for half an hour. After incubating period, slices were transferred to recording chamber while oxygenated ACSF was continuously perfused constantly with the rate of 2 ml/min at 30° C. Borosilicate glass recording electrodes were filled with 0.9% NaCl (1-2 MΩ) and used for extracellular field potential recordings. Extracellular recordings were done from the border area between radiatum and pyramidale layers. Filled micropipettes (4-7 MΩ) containing intracellular solution were used for whole cell current-clamp recordings in the CA1 pyramidale layer. To elicit action potential activity, depolarizing square wave current pulses incremented by 20 pA were injected into the somas for 500-1000 ms, followed by 10 ms return to the baseline holding membrane potential (−80 mV). In addition, to square wave current pulses, slow depolarizing ramp-like current injections were used to quantify action potential threshold values. Neuronal membrane and field potential recordings were performed in control and in the RRD4 groups. […]

[4] = test system: hippocampal slices, CA1 pyramidale layer; assay: Whole cell current-clamp recordings of action potentials in hippocampal slices; type: cell-based; settings: rat hippocampal slices perfused with 20 μM, vs control, N=6
Description: Sprague-Dawley male rats (P14-18) were deeply anesthetized with ether and after the decapitation, the brains were removed rapidly and laced in the fresh high sucrose dissection solution. After hippocampus isolation, hippocampal slices ([…]) were prepared using a Vibratome. The prepared slices were incubated in the artificial cerebrospinal fluid (ACSF) (pH 7.3) for half an hour. After incubating period, slices were transferred to recording chamber while oxygenated ACSF was continuously perfused constantly with the rate of 2 ml/min at 30° C. Borosilicate glass recording electrodes were filled with 0.9% NaCl (1-2 MΩ) and used for extracellular field potential recordings. Extracellular recordings were done from the border area between radiatum and pyramidale layers. Filled micropipettes (4-7 MΩ) containing intracellular solution were used for whole cell current-clamp recordings in the CA1 pyramidale layer. To elicit action potential activity, depolarizing square wave current pulses incremented by 20 pA were injected into the somas for 500-1000 ms, followed by 10 ms return to the baseline holding membrane potential (−80 mV). In addition, to square wave current pulses, slow depolarizing ramp-like current injections were used to quantify action potential threshold values. Neuronal membrane and field potential recordings were performed in control and in the RRD4 groups. RDD4 group brain slices were perfused with 20 μM RRD4. Zero magnesium model of inducing epileptiform activities was used in these experiments. In the treated group slices were incubated in 20 μM RRD4 for 15 minutes, and then were exposed to zero magnesium solution.
The neurodegeneration observed in many diseases has been associated with a progressive decrease in neuronal activity and synaptic dismantling is associated with many neurodegenerative diseases. A potential strategy for preventing and/or halting neurodegenerative disease is by modulating intrinsic properties of individual neurons. Applicants observed that RRD4 pretreatment increased action potential threshold (FIG. 5). Action potential threshold was measured at the beginning of the sharp upward rise of the depolarizing phase of the action potential. (*P<0.05). Based on the data, RRD4 increases action potential (AP) threshold and decreases its amplitude. […] Further, pretreated slices with RRD4 had lower peak potential amplitude (FIG. 6). Mean values for the AP amplitude is voltage difference in 10-90% rise time in each action potential. (*P<0.05).

Structure (SMILES) | Fold change expression of ATF [1] | Fold change expression of NMDAR2C [1] | Fold change expression of RAB27A [1] | Fold change expression of SLC39A3 [1] | RAB27A protein expression vs untreated cells ([2]; 20 μM, FIG. 4A) | ATF3 protein expression compared to control [2] | HPD protein expression compared to control [2] | NMDAR2C protein expression compared to control [2] | RAB27A protein expression compared to control [2] | SLC39A3 (ZIP3) protein expression compared to control [2] | SQSTM1 protein expression compared to control [2] | RAB27A protein expression vs untreated cells ([2]; 25 μM, FIG. 4A) | SQSTM protein expression vs untreated cells ([2]; 25 μM, FIG. 4A) | Time to seizure onset (seizure threshold, first seizure formation) [3] | Action potential (AP) amplitude [4] | Action potential (AP) threshold [4] | Input resistance [4] | Membrane depolarization in treated cells [4]
N[C@@H]1CCCC[C@H]1N.O=P([O-])(O)OP(=O)([O-])O.[Pt+2] [RRD2] | 10↑ fold | 8↑ fold | 1.7↓ fold | 2↓ fold | overexpressed in untreated cells as compared to cells treated | higher | higher | higher | lower | lower | higher |  |  |  |  |  |  | 
NC1CCCCC1N.O=P1(O)OP(=O)(O)[O][Pt]([OH])([OH])[O]1 [RRD4] | 10↑ fold | 8↑ fold | 1.7↓ fold | 2↓ fold |  | higher | higher | higher | lower | lower | higher | overexpressed in untreated cells as compared to cells treated | enhanced expression | significant effect in delaying; also recorded: significantly delayed | lower; also recorded: decreased significantly | increased; also recorded: raised | no effect | significantly more depolarized
